A short description of data set [1]: Stability of Compound 1 drug substance. It is filed as physicochemical. From the text:
Piva, R. R., et al., Blood, 1 Mar. 2008, vol 111, No. 5, p 2765-2775. […] Id.
Compound 1 is currently undergoing clinical trials.

The next data set deals with angiogenesis. Particulars: in vitro; cited from earlier work.
Data set [2] concerns RANKL-induced osteoclastoenesis. To be noted: in vitro; cited from earlier work.
The subject of data set [3] is normal human epithelial cells, bone marrow progenitors, and bone marrow-derived stromal cells. Particulars: cited from earlier work.
Data set [4] is described as follows: Hydrolysis of Compound 10 in aqueous solution. Format: physicochemical. As to the method: Mannitol (39.2 mg) and Kleptose® HP (hydroxypropyl-β-cyclodextrin; 49 mg) are dissolved in sterile water for injection (599 mg) at room temperature. Compound 10 (1.167 mg) is dispersed in tert-butanol (312 mg) by magnetic stirring protected from light at room temperature during 10 minutes. A few mL of the Mannitol/Kleptose® solution is poured into the Compound 10 dispersion in order to solubilize the Compound 10. After forming a solution, the remaining Mannitol/Kleptose® solution is added. The solution is stirred for a few minutes while protected from light. In Formulation 7, the pH is adjusted with phosphoric acid (2M) down to pH 4.0±0.2. In Formulation 8, the pH is about 8 and is not adjusted. The pre-lyophilization solution is filtered through a sterile disposable PVDF filter of 0.22 μm (Stericup Millipore®) to form a clear solution. 4 mL of the filtered pre-lyophilization solution is transferred into a 10 mL bottle and then freeze-dried.
Analysis of the pre-lyophilization solutions for Formulations 7 and 8 were performed at T0 and after 48 hours storage at 25° C. Compound 1 was analyzed because Compound 10 is known to convert to Compound 1 in aqueous solution.

For the compound `CC(C)C[C@H](NC(=O)[C@@H](NC(=O)c1cccc(-c2ccccc2)n1)[C@@H](C)O)B(O)O` [Compound 1, [(1R)-1-[[(2S,3R)-3-Hydroxy-2-[[(6-phenylpyridin-2-yl)carbonyl]amino]-1-oxobutyl]amino]-3-methylbutyl]boronic acid], the “Stability of the compound” value in data set [1] (exposure to air and/or light, some batches degrade at temperatures as low as 5° C.) is “unstable and subject to degradation upon exposure to air and/or light”. In addition, the Stability in solution entry in data set [1] (solution) is reported as “unstable in solution”. Further, the Anti-angiogenic activity entry in the data set with angiogenesis is reported as “strong anti-angiogenic activity”. Moreover, in data set [2], the RANKL-induced osteoclastoenesis result was “represses”. For the same compound, the Cytotoxicity profile entry in data set [3] is reported as “favorable cytotoxicity profile”.
On to “6-(2S,3R)-N-[(1R)-1-(1,3,6,2-dioxazaborocan-2-yl)-3-methylbutyl}-3-hydroxy-2-{(6-phenylpyridin-2-yl)formamido]butanamide [Compound 10]”, for which the “Hydrolysis in aqueous solution” value in data set [4] (aqueous solution, converts to Compound 1) is on record as “readily hydrolyzed”. Besides, the “Compound 10 remaining in obtained lyophilized cake” value in data set [4] (lyophilized cake of Formulations 7 and 8 (4 mL fill)) was less than 0.01 mg.

The values are drawn from patent US8785418B2, “Lyophilization cakes of proteasome inhibitors” (Cephalon, Inc., priority 2009, dated 2014).
